# Reference: patent publication US8143068B2, “Oxidation resistant indicator molecules” (Sensors for Medicine and Science, Inc., priority 2006, dated 2012)
# Where two headings read alike, the source gives them in different places.
# Key:
# [1] = Stability of indicator gels towards oxidant: 1 mM hydrogen peroxide in PBS at 37° C.; type: physicochemical; conditions: indicator gel
# Protocol: Several compounds of the present invention were each copolymerized with hydroxyethyl methacrylate (HEMA), acrylic acid and ethylene glycol dimethacrylate (EGDMA) to form water insoluble polymer gels, as in Example 3. Their stability towards oxidant was assessed by subjecting the gels to 1 mM hydrogen peroxide in PBS at 37° C. […] In a further experiment, the fluorescent change (% modulation) from 0 to 20 mM glucose of various indicator gels was measured and the results are shown in FIG. 8.
# [2] = Modulation of fluorescence by varying concentrations of glucose (Example 1, FIG. 1)
# Protocol: The modulation of the fluorescence of various molecules (depicted in FIG. 5) by varying concentrations of glucose was determined. […] In a further experiment, the unsubstituted control and two compounds of the present invention (4-trifluoromethyl and 3,4-difluoro) were subjected to oxidation treatment with 1 mM hydrogen peroxide, and the loss of fluorescence intensity was measured.
# [3] = Stability of indicator gels in 1 mM hydrogen peroxide in the presence of 4 mM glucose in PBS at 37° C.; type: physicochemical; conditions: indicator gel
# Protocol: Several compounds of the present invention were each copolymerized with hydroxyethyl methacrylate (HEMA), acrylic acid and ethylene glycol dimethacrylate (EGDMA) to form water insoluble polymer gels, as in Example 3. Their stability towards oxidant was assessed by subjecting the gels to 1 mM hydrogen peroxide in PBS at 37° C. In a further experiment, two of the indicator gels (the 4-trifluoromethyl and 4-trifluoromethylsulfone gels) were subjected to 1 mM hydrogen peroxide in the presence of 4 mM glucose in PBS at 37° C. In a further experiment, the fluorescent change (% modulation) from 0 to 20 mM glucose of various indicator gels was measured and the results are shown in FIG. 8.
# [4] = Fluorescence and glucose response of indicator gels (Table 1); type: binding; conditions: indicator gel; for Kd: 37° C.
# [5] = Long term exposure of indicator gels to 10 μM hydrogen peroxide and 4 mM glucose/PBS at 37° C., loss of fluorescence intensity; type: physicochemical; conditions: indicator gel
# Protocol: Several gels (produced as in Example 3) containing compounds of the present invention (4-trifluoromethyl, 3,4-difluoro and 4-fluoro) and a control (unsubstituted) were subjected to long term exposure to 10 μM hydrogen peroxide and 4 mM glucose/PBS at 37° C., and the loss of fluorescence intensity was measured.
# Two compounds according to the present invention (4-trifluoromethyl and 3,4-difluoro) and the unsubstituted control were each copolymerized with hydroxyethyl methacrylate (HEMA) and acrylic acid, and crosslinked with ethylene glycol dimethacrylate (EGDMA) to form a water insoluble polymer graft, which was then implanted into a rat to be subjected to in vivo oxidation for 22 or 43 days.
# [6] = aqueous association with glucose; cited from earlier work
t 1/2 [1],Molecule,further results
22 min,"9-[N-[6-(4,4,5,5,-tetramethyl-1,3,2-dioxaborolano)-2,4-(dichloro)benzyl]-N-[3-(methacrylamido)propylamino]methyl]-10-[N-[6-(4,4,5,5,-tetramethyl-1,3,2-dioxaborolano)-2,4-(dichloro)benzyl]-N-[2-(carboxyethyl)amino]-methyl]anthracene sodium salt [3,5-Dichloro]",–
13 min,"9-[N-[6-(4,4,5,5,-tetramethyl-1,3,2-dioxaborolano)-3-fluorobenzyl]-N-[3-(methacrylamido)propylamino]methyl]-10-[N-[6-(4,4,5,5,-tetramethyl-1,3,2-dioxaborolano)-3-fluorobenzyl]-N-[2-(carboxyethyl)amino]methyl]anthracene sodium salt [Indicator 4-Fluoro]",–
495 min,"9-[N-[6-(4,4,5,5,-tetramethyl-1,3,2-dioxaborolano)-2,4-bis(trifluoromethyl)benzyl]-N-[3-(methacrylamido)propylamino]methyl]-10-[N-[6-(4,4,5,5,-tetramethyl-1,3,2-dioxaborolano)-2,4-bis(trifluoromethyl)benzyl]-N-[2-(carboxyethyl)amino]-methyl]anthracene sodium salt [3,5-Bis(trifluoromethyl)]",–
17 min,"9-[N-[6-(4,4,5,5,-tetramethyl-1,3,2-dioxaborolano)-3-(trifluoromethyl)benzyl]-N-[3-(methacrylamido)propylamino]methyl]-10-[N-[6-(4,4,5,5,-tetramethyl-1,3,2-dioxaborolano)-3-(trifluoromethyl)benzyl]-N-[2-(carboxyethyl)amino]methyl]anthracene sodium salt [4-Trifluoromethyl]","t 1/2 (minutes), in 4 mM Glucose Solution [3]: 30 min; AVERAGE % MODULATION (0 to 20 mM glucose) [4]: 191%; Kd [4]: 12.2 mM; HALF LIFE (days) at 37° C. in 4 mM glucose and 10 μM H2O2 [5]: 26 days"
18 min,"9-[N-[6-(4,4,5,5,-tetramethyl-1,3,2-dioxaborolano)-3-cyanobenzyl]-N-[3-(methacrylamido)propylamino]methyl]-10-[N-[6-(4,4,5,5,-tetramethyl-1,3,2-dioxaborolano)-3-cyanobenzyl]-N-[2-(carboxyethyl)amino]methyl]anthracene sodium salt [Indicator 4-Cyano]",–

# The next lines start with the molecule.
Molecule,t 1/2 [1],further results
"C=C(C)C(=O)NCCCN(Cc1cc([N+](=O)[O-])ccc1B1OC(C)(C)C(C)(C)O1)Cc1c2ccccc2c(CN(CCC(=O)[O-])Cc2cc([N+](=O)[O-])ccc2B2OC(C)(C)C(C)(C)O2)c2ccccc12.[Na+] [Indicator 4-Nitro, 9-[N-[6-(4,4,5,5,-tetramethyl-1,3,2-dioxaborolano)-3-nitrobenzyl]-N-[3-(methacrylamido)propylamino]methyl]-10-[N-[6-(4,4,5,5,-tetramethyl-1,3,2-dioxaborolano)-3-nitrobenzyl]-N-[2-(carboxyethyl)amino]methyl]anthracene sodium salt]",–,modulation of the fluorescence by glucose [2]: did not modulate well
"9-[N-[2-(4,4,5,5,-tetramethyl-1,3,2-dioxaborolano)-3-methylbenzyl]-N-[3-(methacrylamido)propylamino]methyl]-10-[N-[2-(4,4,5,5,-tetramethyl-1,3,2-dioxaborolano)-3-methylbenzyl]-N-[2-(carboxyethyl)amino]methyl]anthracene [Indicator 2-Methyl]",–,modulation of the fluorescence by glucose [2]: did not modulate well
"9-[N-[6-(4,4,5,5,-tetramethyl-1,3,2-dioxaborolano)-2,3-difluorobenzyl]-N-[3-(methacrylamido)propylamino]methyl]-10-[N-[6-(4,4,5,5,-tetramethyl-1,3,2-dioxaborolano)-2,3-difluorobenzyl]-N-[2-(carboxyethyl)amino]methyl]anthracene sodium salt [3,4-Difluoro]",13 min,AVERAGE % MODULATION (0 to 20 mM glucose) [4]: 137%; Kd [4]: 30.9 mM; HALF LIFE (days) at 37° C. in 4 mM glucose and 10 μM H2O2 [5]: 33 days
"C=C(C)C(=O)NCCCN(Cc1cc(OC(F)(F)F)ccc1B1OC(C)(C)C(C)(C)O1)Cc1c2ccccc2c(CN(CCC(=O)[O-])Cc2cc(OC(F)(F)F)ccc2B2OC(C)(C)C(C)(C)O2)c2ccccc12.[Na+] [4-Trifluoromethoxy, 9-[N-[6-(4,4,5,5,-tetramethyl-1,3,2-dioxaborolano)-3-(trifluoromethoxy)benzyl]-N-[3-(methacrylamido)propylamino]methyl]-10-[N-[6-(4,4,5,5-tetra-methyl-1,3,2-dioxaborolano)-3-(trifluoromethoxy)benzyl]-N-[2-(carboxyethyl)amino]methyl]-anthracene sodium salt]",24 min,–
"C=C(C)C(=O)NCCCN(Cc1ccc(F)cc1B1OC(C)(C)C(C)(C)O1)Cc1c2ccccc2c(CN(CCC(=O)[O-])Cc2ccc(F)cc2B2OC(C)(C)C(C)(C)O2)c2ccccc12.[Na+] [Indicator 5-Fluoro, 9-[N-[2-(4,4,5,5,-tetramethyl-1,3,2-dioxaborolano)-4-fluorobenzyl]-N-[3-(methacrylamido)propylamino]methyl]-10-[N-[2-(4,4,5,5,-tetramethyl-1,3,2-dioxaborolano)-4-fluorobenzyl]-N-[2-(carboxyethyl)amino]methyl]anthracene sodium salt]",6 min,–
"9-[N-[6-(4,4,5,5,-tetramethyl-1,3,2-dioxaborolano)-2,3-dichlorobenzyl]-N-[3-(methacrylamido)propylamino]methyl]-10-[N-[6-(4,4,5,5,-tetramethyl-1,3,2-dioxaborolano)-2,3-dichlorobenzyl]-N-[2-(carboxyethyl)amino]methyl]anthracene sodium salt [3,4-Dichloro]",32 min,–
OB(O)c1ccccc1 [phenylboronic acid],–,Kd [6]: 9.1 mM
"9-[N-[2-(4,4,5,5,-tetramethyl-1,3,2-dioxaborolano)-4-(trifluoromethyl)benzyl]-N-[3-(methacrylamido)propylamino]methyl]-10-[N-[2-(4,4,5,5-tetra-methyl-1,3,2-dioxaborolano)-4-(trifluoromethyl)benzyl]-N-[2-(carboxyethyl)amino]methyl]-anthracene sodium salt [5-Trifluoromethyl]",24 min,–
